A short description of experiment [1]: Nucleation of hydroxyapatite on tooth dentin (SBFn/SBFg, SEM). Also noted: species or system human. Particulars: nondemineralized dentin, 12.5 μM peptide. The procedure:
To determine whether applying DSS to various preparations of tissue promoted HA nucleation, that could ultimately lead to tissue remineralization, sagittally sectioned adult human teeth (obtained after extraction during normal clinical practice) were polished using a Streurs grinding wheel, and prepared for nucleation experiments. Half of the sections were demineralized with 35% phosphoric acid for 15 minutes, then rinsed thoroughly with deionized water. The other half were left untreated. All samples were then sonicated for five minutes to remove excess debris left from cutting and grinding and/or demineralization. Samples were treated with 12.5 μM 8DSS dissolved in 50 mM HEPES buffer solution (pH 7.0), buffer solution only, or left untreated. Samples were then immersed into a simulated body fluid (SBFn), meant to accelerate nucleation of hydroxyapatite (HA) crystals, for 4 hours. Following the nucleation step, samples were immersed in a magnesium and bicarbonate free solution (SBFg) in order to allow the nucleated HA crystals to grow. […] Both solutions were adjusted to pH 6.8. Crystals were grown in order to amplify the nucleated crystals for easy visualization by SEM.

Experiment [2] in a line: Tissue specific binding of labeled peptides to sections of human teeth (CLSM). Particulars: 5(6)-carboxyfluorescein-labeled peptide, ten minutes. An excerpt: In order to investigate the tissue specificity of DSS peptide binding to tooth tissue, sections of human teeth were exposed to DSS peptides and variants, then imaged by CLSM. The peptides utilized for these experiments were 8DSS (SEQ ID NO:33), 8ASS (SEQ ID NO:26), 8DAA (SEQ ID NO:40), 8NAA (SEQ ID NO:41), 4DSS (SEQ ID NO:31), 4ESS (SEQ ID NO:34), 4NSS (SEQ ID NO:35), 4DTT (SEQ ID NO:36), 4ETT (SEQ ID NO:37), 4NTT (SEQ ID NO:38), and 6DSS (SEQ ID NO:32). Sagittal sections of human teeth extracted during normal clinical practice were polished and then incubated for ten minutes in a solution of the appropriate 5(6) carboxyfluorescein-labeled peptide (12.5pM) containing 10 mM NaCl and 50 mM HEPES, pH 7.0. Control samples were prepared without peptide. Samples were washed extensively after treatment and imaged by CLSM using blue laser illumination (A=488 nm) and a FITC emission filter, with identical camera and microscope settings for each sample. For each section, multiple scans were collected and assembled in an automated mode to generate panels of images representing an area of 13×13 mm, sufficient in most cases to encompass the whole section. […] Significant binding was also seen to the edges of the pulp cavity.

Experiment [3] is described as follows: DSS-mediated remineralization of demineralized tooth surfaces with Quell Desensitizer (SEM). Also noted: species or system human. Conditions: peptide pretreatment 1 h, then Quell Desensitizer 15 min. The protocol:
Adult human molars, extracted during normal clinical practice, were sagittally sectioned (Accutom-50, Copenhagen, Denmark; CA-231 diamond blade) and demineralized with 19% ethylenediaminotetraacetic acid (EDTA) gel for 1 h, followed by immersion in deionized water and ultrasonication to remove debris. Samples were treated with either 12.5 p.M 8DSS (SEQ ID NO:33) peptide in 50 mM HEPES buffer (pH 7.0) or buffer alone (no peptide) or were left untreated for 1 h prior to remineralization with Quell Desensitizer (Pentron Technologies, Wallingford, Conn.), a remineralization solution consisting of aqueous solutions of calcium chloride and potassium phosphate, for 15 min. Samples were rinsed thoroughly prior to imaging by scanning electron microscopy. Having established that (DSS)n-containing peptides can bind to the dentin surface and that immobilized peptides could cause the accretion of calcium phosphate, we sought to determine whether these peptides could be used to recruit calcium phosphate to the dentin surface. Demineralized sections of extracted human teeth were treated with 8DSS (SEQ ID NO:33) peptide and then subjected to remineralization with Quell Desensitizer (Pentron Technologies), a commercially available remineralization product consisting of aqueous solutions of calcium chloride and potassium phosphate.

Entries after “also recorded” stand apart in the source; their conditions may differ.

Take “DSS DSS DSSDSS DSS DSS DSS DSS (DSSDSSDSSDSSDSSDSSDSSDSS; synthetic calcium-binding peptide 8DSS)”: the “crystal growth (nucleation) on dentin” value in experiment [1] was “the most significant growth”. In experiment [2], the “tissue pattern of binding in the tooth section” value is recorded as “bound primarily to the mantle dentin”. In addition, in experiment [2] (identical settings), the “level of binding (staining) to tooth surfaces” value was “the greatest levels of staining”. Also, in experiment [3], the “mineral accumulation on demineralized dentin” value was “accumulated a continuous layer of calcium phosphate precipitate; also recorded: markedly enhanced the effectiveness of a commercially available remineralization product”.
